Results from PMC2822779, “A glycine receptor is involved in the organization of swimming movements in an invertebrate chordate” (BMC Neuroscience, 2010).

Biological target: T1, Ci-GlyR (Ciona intestinalis, UniProt D2KU21)
T1 construct: single subunit expressed alone; no tag stated; cDNA from hatched larvae
T1 sequence (D2KU21 25-491): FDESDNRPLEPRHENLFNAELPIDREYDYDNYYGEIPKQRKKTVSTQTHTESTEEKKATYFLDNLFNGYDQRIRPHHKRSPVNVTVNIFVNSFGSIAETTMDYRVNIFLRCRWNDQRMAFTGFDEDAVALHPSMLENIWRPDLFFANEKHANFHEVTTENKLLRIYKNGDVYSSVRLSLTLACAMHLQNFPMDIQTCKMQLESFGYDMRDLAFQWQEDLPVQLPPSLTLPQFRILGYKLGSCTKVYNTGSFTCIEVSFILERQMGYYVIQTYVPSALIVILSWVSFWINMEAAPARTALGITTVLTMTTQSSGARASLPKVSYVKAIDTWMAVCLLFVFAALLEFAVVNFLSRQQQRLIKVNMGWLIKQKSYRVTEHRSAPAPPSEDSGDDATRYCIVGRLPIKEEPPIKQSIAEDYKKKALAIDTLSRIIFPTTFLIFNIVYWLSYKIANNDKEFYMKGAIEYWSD
Experiment: two-electrode voltage clamp, Xenopus oocytes
Assay type: cell-based

EC50: ~750 µM
Compound: NCC(=O)O [glycine]
